In PubChem BioAssay (NCI):
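48-hour exposure; five concentrations; linearly interpolated endpoints. TGI denotes the concentration required for complete inhibition of growth.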

Tests used:
Assay in all cases: NCI anticancer screen, dose series, 48 h
CCRF-CEM leukemia = tested on: CCRF-CEM leukemia
A549 NSCLC = tested on: A549 NSCLC
T-47D breast = tested on: T-47D breast
NCI-H23 lung = tested on: NCI-H23 lung
EKVX NSCLC = tested on: EKVX NSCLC
DU-145 prostate = tested on: DU-145 prostate
A498 renal = tested on: A498 renal
MDA-MB-231 breast = tested on: MDA-MB-231 breast
786-0 renal = tested on: 786-0 renal
NCI-H522 lung = tested on: NCI-H522 lung
SK-MEL-5 melanoma = tested on: SK-MEL-5 melanoma
SR leukemia = tested on: SR leukemia
SK-MEL-2 melanoma = tested on: SK-MEL-2 melanoma
HT29 colon = tested on: HT29 colon
U251 CNS = tested on: U251 CNS
MALME-3M melanoma = tested on: MALME-3M melanoma
HCT-116 colon = tested on: HCT-116 colon
SF-295 CNS = tested on: SF-295 CNS
MOLT-4 leukemia = tested on: MOLT-4 leukemia
ACHN renal = tested on: ACHN renal
SW-620 colon = tested on: SW-620 colon
MDA-N = tested on: MDA-N
RXF 393 renal = tested on: RXF 393 renal
UACC-257 melanoma = tested on: UACC-257 melanoma
OVCAR-8 ovarian = tested on: OVCAR-8 ovarian
LOX IMVI melanoma = tested on: LOX IMVI melanoma
HCC-2998 colon = tested on: HCC-2998 colon
HOP-62 NSCLC = tested on: HOP-62 NSCLC
IGROV1 ovarian = tested on: IGROV1 ovarian
OVCAR-5 ovarian = tested on: OVCAR-5 ovarian
HL-60(TB) leukemia = tested on: HL-60(TB) leukemia
SK-MEL-28 melanoma = tested on: SK-MEL-28 melanoma
SNB-19 CNS = tested on: SNB-19 CNS
UO-31 renal = tested on: UO-31 renal
PC-3 prostate = tested on: PC-3 prostate
TK-10 renal = tested on: TK-10 renal
UACC-62 melanoma = tested on: UACC-62 melanoma
SNB-75 CNS = tested on: SNB-75 CNS
M14 melanoma = tested on: M14 melanoma
SF-539 CNS = tested on: SF-539 CNS
SF-268 CNS = tested on: SF-268 CNS
NCI-H226 lung = tested on: NCI-H226 lung
KM12 colon = tested on: KM12 colon
OVCAR-3 ovarian = tested on: OVCAR-3 ovarian
NCI/ADR-RES ovarian = tested on: NCI/ADR-RES ovarian
COLO 205 colon = tested on: COLO 205 colon
HCT-15 colon = tested on: HCT-15 colon
SN12C renal = tested on: SN12C renal
K-562 leukemia = tested on: K-562 leukemia
CAKI-1 renal = tested on: CAKI-1 renal
OVCAR-4 ovarian = tested on: OVCAR-4 ovarian
NCI-H460 lung = tested on: NCI-H460 lung
MDA-MB-435 = tested on: MDA-MB-435
SK-OV-3 ovarian = tested on: SK-OV-3 ovarian
HOP-92 NSCLC = tested on: HOP-92 NSCLC
HS 578T breast = tested on: HS 578T breast

O=C(O)c1cccc(S(=O)(=O)NN2C(=O)CSC2c2c(O)ccc3ccccc23)c1 (stereo unspecified)
TGI (CCRF-CEM leukemia): 46.4 µM | TGI (A549 NSCLC): > 100 µM | TGI (T-47D breast): 80.5 µM | TGI (NCI-H23 lung): 51.1 µM | TGI (EKVX NSCLC): > 100 µM | TGI (DU-145 prostate): > 100 µM | TGI (A498 renal): 46.2 µM | TGI (MDA-MB-231 breast): > 100 µM | TGI (786-0 renal): > 100 µM | TGI (NCI-H522 lung): 77.6 µM | TGI (SK-MEL-5 melanoma): 62.5 µM | TGI (SR leukemia): 59.6 µM | TGI (SK-MEL-2 melanoma): > 100 µM | TGI (HT29 colon): 69.2 µM | TGI (U251 CNS): > 100 µM | TGI (MALME-3M melanoma): 90.6 µM | TGI (HCT-116 colon): 38.5 µM | TGI (SF-295 CNS): 94.9 µM | TGI (MOLT-4 leukemia): 46.3 µM | TGI (ACHN renal): > 100 µM | TGI (SW-620 colon): 65.7 µM | TGI (MDA-N): > 100 µM | TGI (RXF 393 renal): 89.1 µM | TGI (UACC-257 melanoma): > 100 µM | TGI (OVCAR-8 ovarian): 15.7 µM | TGI (LOX IMVI melanoma): 60 µM | TGI (HCC-2998 colon): > 100 µM | TGI (HOP-62 NSCLC): > 100 µM | TGI (IGROV1 ovarian): 45.1 µM | TGI (OVCAR-5 ovarian): > 100 µM | TGI (HL-60(TB) leukemia): 59.8 µM | TGI (SK-MEL-28 melanoma): 79.2 µM | TGI (SNB-19 CNS): 87 µM | TGI (UO-31 renal): > 100 µM | TGI (PC-3 prostate): > 100 µM | TGI (TK-10 renal): > 100 µM | TGI (UACC-62 melanoma): 66.4 µM | TGI (SNB-75 CNS): > 100 µM | TGI (M14 melanoma): > 100 µM | TGI (SF-539 CNS): 55.8 µM | TGI (SF-268 CNS): 91.5 µM | TGI (NCI-H226 lung): > 100 µM | TGI (KM12 colon): > 100 µM | TGI (OVCAR-3 ovarian): 62.5 µM | TGI (NCI/ADR-RES ovarian): 76.9 µM | TGI (COLO 205 colon): > 100 µM | TGI (HCT-15 colon): > 100 µM | TGI (SN12C renal): > 100 µM | TGI (K-562 leukemia): > 100 µM | TGI (CAKI-1 renal): 68 µM | TGI (OVCAR-4 ovarian): 83 µM | TGI (NCI-H460 lung): > 100 µM | TGI (MDA-MB-435): > 100 µM | TGI (SK-OV-3 ovarian): > 100 µM

CC(C)c1cc(C(C)C)c(B(c2ccccc2)c2ccccc2)c(C(C)C)c1B(c1ccccc1)c1ccccc1
TGI (A549 NSCLC): > 100 µM | TGI (T-47D breast): > 100 µM | TGI (EKVX NSCLC): > 100 µM | TGI (DU-145 prostate): > 100 µM | TGI (MDA-MB-231 breast): > 100 µM | TGI (NCI-H522 lung): > 100 µM | TGI (SK-MEL-5 melanoma): > 100 µM | TGI (SR leukemia): > 100 µM | TGI (SK-MEL-2 melanoma): > 100 µM | TGI (HT29 colon): > 100 µM | TGI (MALME-3M melanoma): > 100 µM | TGI (HCT-116 colon): > 100 µM | TGI (SF-295 CNS): > 100 µM | TGI (MOLT-4 leukemia): > 100 µM | TGI (ACHN renal): > 100 µM | TGI (SW-620 colon): > 100 µM | TGI (MDA-N): > 100 µM | TGI (UACC-257 melanoma): > 100 µM | TGI (OVCAR-8 ovarian): > 100 µM | TGI (LOX IMVI melanoma): > 100 µM | TGI (HOP-62 NSCLC): > 100 µM | TGI (IGROV1 ovarian): > 100 µM | TGI (PC-3 prostate): > 100 µM | TGI (UACC-62 melanoma): > 100 µM | TGI (SNB-75 CNS): > 100 µM | TGI (M14 melanoma): > 100 µM | TGI (SF-268 CNS): > 100 µM | TGI (HOP-92 NSCLC): > 100 µM | TGI (HS 578T breast): > 100 µM | TGI (OVCAR-3 ovarian): > 100 µM | TGI (NCI/ADR-RES ovarian): > 100 µM | TGI (COLO 205 colon): > 100 µM | TGI (HCT-15 colon): > 100 µM | TGI (SN12C renal): > 100 µM | TGI (OVCAR-4 ovarian): > 100 µM | TGI (NCI-H460 lung): > 100 µM | TGI (SK-OV-3 ovarian): > 100 µM
